Experimental data taken from patent US20220395553A1, “CXCR4 ANTAGONIST PEPTIDES” (COHBAR, INC., priority 2019, published 2022).
Square brackets hold non-standard residues; d marks the D form. Peptide text beside a SMILES is read from it.

What was measured:
[1] = system: CXCR4/CXCL12 induced p-MEK; assay: CXCR4/CXCL12 induced p-MEK in Jurkat cells (ELISA); type: cell-based, human; conditions: 5 nM CXCL12, 5 min
Description: The assay was performed following a protocol similar to that described by Peng, et al., Mol Cancer Ther., 14 480-90 (2015), incorporated herein by reference. […] Jurkat cells were resuspended in standard growth media (RPMI+GlutaMax media; Gibco/Thermo Fisher Scientific; Gaithersburg, Md.) containing 10% FBS and 1% penicillin/streptomycin. Assays were performed using fresh or conditioned media (media cultured overnight in presence of Jurkat cells) to resuspend cells at density of 2×10^6 cells/ml and […] of cell suspension was immediately placed in 1.7 ml microfuge tubes. […] Following the 5 min incubation, cells were centrifuged at 1000×g for 4 min at 4° C. The supernatant was removed and the cells were rinsed with 1 ml of HBSS containing calcium and magnesium. The HBSS was removed and the cells were immediately lysed in 150 l of lysis buffer included with Phospho-MEK1 (Ser217/221) Sandwich ELISA kit (Cell Signaling Technology; Danvers, Mass.); lysis buffer was supplemented with 1 m M PMSF (Millipore-Sigma; Saint Louis, Mo.) and Halt protease/phosphatase inhibitor cocktail (Thermo-Fisher; Waltham, Mass.) prior to use. The samples were then placed on ice for 10 min and vortexed periodically. Following the lysis step, the samples were centrifuged at 12,500 rpm for 10 min at 4° C. p-MEK expression in each of the samples was then measure using Phospho-MEK1 (Ser217/221) Sandwich ELISA kit according to manufacturer's instructions. Absorbance was measured using a Cytation 3 plate reader at […] (BioTek; Winooski, Vt.).

[2] = biological target: T1, human CXCR4 (Homo sapiens, UniProt P61073); assay: IC50 for inhibition of CXCR4 activation, β-Arrestin recruitment (Example 22); type: cell-based; design: host or cells: C2C12 (mouse myoblast) CXCR4 β-Arrestin PathHunter cell line
T1 sequence (P61073 whole entry): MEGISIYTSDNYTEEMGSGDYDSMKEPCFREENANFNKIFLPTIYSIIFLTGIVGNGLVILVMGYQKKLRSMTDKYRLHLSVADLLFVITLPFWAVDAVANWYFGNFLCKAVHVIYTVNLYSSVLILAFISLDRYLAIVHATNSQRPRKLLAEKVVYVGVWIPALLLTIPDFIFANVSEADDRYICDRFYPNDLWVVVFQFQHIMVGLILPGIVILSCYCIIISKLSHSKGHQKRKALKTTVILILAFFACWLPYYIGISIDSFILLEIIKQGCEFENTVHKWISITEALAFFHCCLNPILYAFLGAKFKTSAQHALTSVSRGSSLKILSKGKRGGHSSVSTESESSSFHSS
Description: The assay was run with the DiscoverX protocol. β-Arrestin recruitment assays were performed by Eurofins-DiscoverX (Fremont, Calif.) using C2C12 CXCR4 β-Arrestin cell line (co-expressing ProLink tagged human CXCR4 and Enzyme Acceptor tagged β-Arrestin) and PathHunter detection kit. Peptides were initially prepared as 1 mM stock in H2O and tested in ten (10)-step concentration response curves using 3-fold dilution steps with 1 μM as highest concentration; a concentration range of 1 μM-0.05 nM was tested. C2C12 CXCR4 β-Arrestin cells were seed onto 384-well plates in standard medium. […] At the end of the 90 min incubation period, β-Arrestin recruitment in response to various treatments was quantified using a chemiluminescent complementation reporter assay to measure association of tagged human […] (ProLink tag) and tagged β-Arrestin (Enzyme Acceptor tag).

[3] = biological target: T1, human CXCR4; assay: CXCR4/CXCL12 binding, HTRF format, single concentration (Example 23); design: host or cells: HEK293 (Tag-lite CXCR4 cells, frozen aliquots, transient expression); conditions: 15 nM CXCR4R fluorescent probe, 3 hours, HEK293 Tag-lite CXCR4 cells
Outline: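 Tag-lite CXCR4 cells were exposed to peptide at 400 nM final with 15 nM (EC80) fluorescent CXCR4 probe for 3 h at room temperature. HTRF was read, and the 665/620 nm ratio ×10,000 measured probe bound to terbium-labelled receptor.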

SMILES | Percent Inhibition of CXCR4/CXCL12 Induced p-MEK (100 nM Test Article) [1] [%] | Percent Inhibition of CXCR4/CXCL12 Induced p-MEK (1 μM Test Article) [1] [%] | IC50 [2] [nM] | Percent Inhibition of CXCR4/CXCL12 Binding (400 nM peptide) [3] [%]
CC(C)C[C@H](NC(=O)[C@H](CO)NC(=O)[C@H](CO)NC(=O)[C@H](CCCNC(=N)N)NC(=O)[C@@H](NC(=O)[C@H](CO)NC(=O)[C@H](Cc1c[nH]cn1)NC(=O)[C@H](Cc1c[nH]cn1)NC(=O)[C@H](Cc1ccc(O)cc1)NC(=O)[C@H](CCCNC(=N)N)NC(=O)[C@H](CCC(=O)O)NC(=O)[C@@H](C)N)C(C)C)C(=O)N[C@@H](CCCNC(=N)N)C(=O)N1CCC[C@H]1C(=O)N[C@@H](Cc1ccc(O)cc1)C(=O)N[C@H](C(=O)N[C@@H](CCCCN)C(=O)O)[C@@H](C)O [compound 34] (H-[dA]ERYHHSVRSSLRPYTK-OH; N-terminus and C-terminus assumed) | −1 | 2 | > 1000 | −17
CC(C)C[C@H](NC(=O)[C@H](CO)NC(=O)[C@H](CO)NC(=O)[C@H](CCCNC(=N)N)NC(=O)[C@@H](NC(=O)[C@H](CO)NC(=O)[C@H](Cc1c[nH]cn1)NC(=O)[C@H](Cc1c[nH]cn1)NC(=O)[C@H](Cc1ccc(O)cc1)NC(=O)[C@H](CC(=O)O)NC(=O)[C@H](CCCNC(=N)N)NC(=O)[C@@H](N)CC(C)C)C(C)C)C(=O)N[C@@H](CCCNC(=N)N)C(=O)N1CCC[C@H]1C(=O)N[C@@H](Cc1ccc(O)cc1)C(=O)N[C@H](C(=O)N[C@@H](CCCCN)C(=O)O)[C@@H](C)O [compound 36] (H-LRDYHHSVRSSLRPYTK-OH; N-terminus and C-terminus assumed) | 22 | −5 | > 1000 | −11
CC(C)C[C@H](NC(=O)[C@H](CO)NC(=O)[C@H](CO)NC(=O)[C@H](CCCNC(=N)N)NC(=O)[C@@H](C)NC(=O)[C@@H](NC(=O)[C@H](Cc1c[nH]cn1)NC(=O)[C@H](Cc1c[nH]cn1)NC(=O)[C@H](Cc1ccc(O)cc1)NC(=O)[C@H](CCCNC(=N)N)NC(=O)[C@H](CCC(=O)O)NC(=O)[C@@H](N)CC(C)C)[C@@H](C)O)C(=O)N[C@@H](CCCNC(=N)N)C(=O)N1CCC[C@H]1C(=O)N[C@@H](Cc1ccc(O)cc1)C(=O)N[C@H](C(=O)N[C@@H](CCCCN)C(=O)O)[C@@H](C)O [compound 40] (H-LERYHHT[dA]RSSLRPYTK-OH; N-terminus and C-terminus assumed) | 33 | 94 | 5 | 76
CC(C)C[C@H](NC(=O)[C@H](CO)NC(=O)[C@H](CO)NC(=O)[C@H](CCCNC(=N)N)NC(=O)[C@@H](C)NC(=O)[C@H](CO)NC(=O)[C@H](Cc1c[nH]cn1)NC(=O)[C@H](CC(N)=O)NC(=O)[C@H](Cc1ccc(O)cc1)NC(=O)[C@H](CCCNC(=N)N)NC(=O)[C@H](CCC(=O)O)NC(=O)[C@@H](N)CC(C)C)C(=O)N[C@@H](CCCNC(=N)N)C(=O)N1CCC[C@H]1C(=O)N[C@@H](Cc1ccc(O)cc1)C(=O)N[C@H](C(=O)N[C@@H](CCCCN)C(=O)O)[C@@H](C)O [compound 43] (H-LERYNHS[dA]RSSLRPYTK-OH; N-terminus and C-terminus assumed) | 5 | 40 | 14 | 53
CC(C)C[C@H](NC(=O)[C@H](CO)NC(=O)[C@H](CO)NC(=O)[C@H](CCCNC(=N)N)NC(=O)[C@@H](C)NC(=O)[C@H](CO)NC(=O)[C@H](Cc1c[nH]cn1)NC(=O)[C@H](Cc1c[nH]cn1)NC(=O)[C@H](Cc1ccccc1)NC(=O)[C@H](CCCNC(=N)N)NC(=O)[C@H](CCC(=O)O)NC(=O)[C@@H](N)CC(C)C)C(=O)N[C@@H](CCCNC(=N)N)C(=O)N1CCC[C@H]1C(=O)N[C@@H](Cc1ccc(O)cc1)C(=O)N[C@H](C(=O)N[C@@H](CCCCN)C(=O)O)[C@@H](C)O [compound 55] (H-LERFHHS[dA]RSSLRPYTK-OH; N-terminus and C-terminus assumed) | 16 | 72 | 4 | 56
CC(C)C[C@H](NC(=O)[C@H](CO)NC(=O)[C@H](CO)NC(=O)[C@H](CCCNC(=N)N)NC(=O)[C@@H](NC(=O)[C@H](CO)NC(=O)[C@H](Cc1c[nH]cn1)NC(=O)[C@H](Cc1c[nH]cn1)NC(=O)[C@H](Cc1ccc(O)cc1)NC(=O)[C@H](CCCNC(=N)N)NC(=O)[C@H](CCCNC(=N)N)NC(=O)[C@@H](N)CC(C)C)C(C)C)C(=O)N[C@@H](CCCNC(=N)N)C(=O)N1CCC[C@H]1C(=O)N[C@@H](Cc1ccccc1)C(=O)N[C@H](C(=O)N[C@@H](CCCCN)C(=O)O)[C@@H](C)O [compound 59] (H-LRRYHHSVRSSLRPFTK-OH; N-terminus and C-terminus assumed) | 43 | 93 | 3 | −3
CC(C)C[C@H](NC(=O)[C@H](CO)NC(=O)[C@H](CO)NC(=O)[C@H](CCCNC(=N)N)NC(=O)[C@@H](C)NC(=O)[C@H](CO)NC(=O)[C@H](Cc1c[nH]cn1)NC(=O)[C@H](Cc1c[nH]cn1)NC(=O)[C@H](Cc1ccc(O)cc1)NC(=O)[C@H](CCCNC(=N)N)NC(=O)[C@H](CCC(=O)O)NC(=O)[C@@H](N)CC(C)C)C(=O)N[C@@H](CCCNC(=N)N)C(=O)N1CCC[C@H]1C(=O)N[C@@H](Cc1ccccc1)C(=O)N[C@H](C(=O)N[C@@H](CCCCN)C(=O)O)[C@@H](C)O [compound 61] (H-LERYHHS[dA]RSSLRPFTK-OH; N-terminus and C-terminus assumed) | 15 | 46 | 8 | 54
CC(C)C[C@H](NC(=O)[C@H](CO)NC(=O)[C@H](CO)NC(=O)[C@H](CCCNC(=N)N)NC(=O)[C@@H](NC(=O)[C@H](CO)NC(=O)[C@H](Cc1c[nH]cn1)NC(=O)[C@H](Cc1c[nH]cn1)NC(=O)[C@H](Cc1ccc(O)cc1)NC(=O)[C@H](CCCNC(=N)N)NC(=O)[C@H](CCCNC(=N)N)NC(=O)[C@@H](N)CC(C)C)C(C)C)C(=O)N[C@@H](CC(=O)O)C(=O)N1CCC[C@H]1C(=O)N[C@@H](Cc1ccc(O)cc1)C(=O)N[C@H](C(=O)N[C@@H](CCCCN)C(=O)O)[C@@H](C)O [compound 67] (H-LRRYHHSVRSSLDPYTK-OH; N-terminus and C-terminus assumed) | −8 | 42 | 14 | 3
CC(C)C[C@H](NC(=O)[C@@H](NC(=O)[C@H](CO)NC(=O)[C@H](CCCNC(=N)N)NC(=O)[C@@H](NC(=O)[C@H](CO)NC(=O)[C@H](Cc1c[nH]cn1)NC(=O)[C@H](Cc1c[nH]cn1)NC(=O)[C@H](Cc1ccc(O)cc1)NC(=O)[C@H](CCCNC(=N)N)NC(=O)[C@H](CCCNC(=N)N)NC(=O)[C@@H](N)CC(C)C)C(C)C)[C@@H](C)O)C(=O)N[C@@H](CCCNC(=N)N)C(=O)N1CCC[C@H]1C(=O)N[C@@H](Cc1ccc(O)cc1)C(=O)N[C@H](C(=O)N[C@@H](CCCCN)C(=O)O)[C@@H](C)O [compound 71] (H-LRRYHHSVRSTLRPYTK-OH; N-terminus and C-terminus assumed) | 56 | 94 | 3 | 29
